Data published in patent publication US10350170B2, “Solid preparation” (Takeda Pharmaceutical Company Limited, priority 2015, dated 2019).

Experiment: Stability of compound A alone in a solid state to temperature, humidity
Type: physicochemical

For `CONC(=O)Nc1ccc(-c2sc3c(c2CN(C)C)c(=O)n(-c2ccc(OC)nn2)c(=O)n3Cc2c(F)cccc2F)cc1` [compound A, N-(4-(1-(2,6-difluorobenzyl)-5-((dimethylamino)methyl)-3-(6-methoxy-3-pyridazinyl)-2,4-dioxo-1,2,3,4-tetrahydrothieno[2,3-d]pyrimidin-6-yl)phenyl)-N′-methoxyurea], the “stability to temperature, humidity and the like” value was “stable”.
